System: Human patients with short bowel syndrome
Assay: Example 1: kidney diagnostic biomarkers (urea nitrogen, creatinine, GFR) in short bowel syndrome patients, every four weeks for 24 weeks
Assay type: in vivo
Parameters: CREATININE (RATE BLANKED) Change from Baseline, Median / GFR, Median / GFR Change from Baseline, Median / UREA NITROGEN, Median / UREA NITROGEN Change from Baseline, Median: unit not given here
Conditions: for CREATININE (RATE BLANKED), Median: unit assumed
Description: Human patients with short bowel syndrome were divided into three groups: a control group (16 total individuals) to receive placebo, an experimental group (35 total individuals) to receive teduglutide at 0.05 mg/kg/day throughout the study, and an experimental group (32 total individuals) to receive teduglutide at 0.1 mg/kg/day throughout the study. Patients were treated by subcutaneous injection of placebo or the appropriate dose of teduglutide. As individuals with short bowel syndrome are likely to experience associated liver and kidney disease, known biomarkers of liver and kidney function were monitored every four weeks, for 24 weeks. The liver biomarkers tested included total bilirubin, ALT and AST and ALP. The kidney biomarkers tested included urea nitrogen, creatinine and GFR. Before administration of placebo or teduglutide, diagnostic biomarker levels were tested to establish a baseline for each individual.
To visualize the effect of GLP-2 on the levels of the diagnostic biomarkers, the average change from baseline was calculated for the placebo and teduglutide treated groups for each visit after a baseline was established. The average change from baseline of each group is depicted in FIGS. […]. The numerical figures for each diaanostic biomarker at each time point are depicted in Table 1.
The raw data for this sorting is reproduced in Table 2 below.

[1] = Week 4, range <−5%, teduglutide 0.05 mg/kg/day
[2] = Week 4, range <−5%, teduglutide 0.1 mg/kg/day
[3] = Week 4, range >5%, teduglutide 0.05 mg/kg/day
[4] = Week 4, range >5%, teduglutide 0.1 mg/kg/day
[5] = Week 4, range −5%<= and <=5%, teduglutide 0.05 mg/kg/day
[6] = Week 4, range −5%<= and <=5%, teduglutide 0.1 mg/kg/day
[7] = Week 8, range <−5%, teduglutide 0.05 mg/kg/day
[8] = Week 8, range <−5%, teduglutide 0.1 mg/kg/day
[9] = Week 8, range >5%, teduglutide 0.05 mg/kg/day
[10] = Week 8, range >5%, teduglutide 0.1 mg/kg/day
[11] = Week 8, range −5%<= and <=5%, teduglutide 0.05 mg/kg/day
[12] = Week 8, range −5%<= and <=5%, teduglutide 0.1 mg/kg/day
[13] = Week 12, range <−5%, teduglutide 0.05 mg/kg/day
[14] = Week 12, range <−5%, teduglutide 0.1 mg/kg/day
[15] = Week 12, range >5%, teduglutide 0.05 mg/kg/day

CC[C@H](C)[C@H](NC(=O)[C@H](Cc1ccccc1)NC(=O)[C@H](CC(=O)O)NC(=O)[C@H](CCCNC(=N)N)NC(=O)[C@H](C)NC(=O)[C@H](C)NC(=O)[C@H](CC(C)C)NC(=O)[C@H](CC(N)=O)NC(=O)[C@H](CC(=O)O)NC(=O)[C@H](CC(C)C)NC(=O)[C@@H](NC(=O)[C@@H](NC(=O)[C@H](CC(N)=O)NC(=O)[C@H](CCSC)NC(=O)[C@H](CCC(=O)O)NC(=O)[C@H](CC(=O)O)NC(=O)[C@H](CO)NC(=O)[C@H](Cc1ccccc1)NC(=O)[C@H](CO)NC(=O)CNC(=O)[C@H](CC(=O)O)NC(=O)CNC(=O)[C@@H](N)Cc1c[nH]cn1)[C@@H](C)O)[C@@H](C)CC)C(=O)N[C@@H](CC(N)=O)C(=O)N[C@@H](Cc1c[nH]c2ccccc12)C(=O)N[C@@H](CC(C)C)C(=O)N[C@H](C(=O)N[C@@H](CCC(N)=O)C(=O)N[C@H](C(=O)N[C@@H](CCCCN)C(=O)N[C@H](C(=O)N[C@H](C(=O)N[C@@H](CC(=O)O)C(=O)O)[C@@H](C)O)[C@@H](C)CC)[C@@H](C)O)[C@@H](C)CC [teduglutide]
GFR, Median (0.10 mg/kg/day, DW20): 76.1
UREA NITROGEN Change from Baseline, Mean (SD) (0.10 mg/kg/day, DW20): −0.0 (1.60)
UREA NITROGEN Change from Baseline, Median (0.10 mg/kg/day, DW20): −0.1
UREA NITROGEN, Mean (SD) (0.10 mg/kg/day, DW20): 6.3 (1.91)
UREA NITROGEN, Median (0.10 mg/kg/day, DW20): 6.0
CREATININE (RATE BLANKED), Median (0.10 mg/kg/day, DW20): 88 µmol/L
CREATININE (RATE BLANKED) Change from Baseline, Mean (SD) (0.10 mg/kg/day, DW24): −2.0 (13.18)
CREATININE (RATE BLANKED) Change from Baseline, Median (0.10 mg/kg/day, DW24): 0.0
CREATININE (RATE BLANKED), Mean (SD) (0.10 mg/kg/day, DW24): 82.0 (22.35)
GFR Change from Baseline, Mean (SD) (0.10 mg/kg/day, DW24): 4.6 (16.73)
GFR Change from Baseline, Median (0.10 mg/kg/day, DW24): 2.3
GFR, Mean (SD) (0.10 mg/kg/day, DW24): 82.4 (27.05)
GFR, Median (0.10 mg/kg/day, DW24): 81.1
UREA NITROGEN Change from Baseline, Mean (SD) (0.10 mg/kg/day, DW24): −0.2 (1.87)
UREA NITROGEN Change from Baseline, Median (0.10 mg/kg/day, DW24): 0.3
UREA NITROGEN, Mean (SD) (0.10 mg/kg/day, DW24): 6.1 (1.98)
UREA NITROGEN, Median (0.10 mg/kg/day, DW24): 5.9
CREATININE (RATE BLANKED), Median (0.10 mg/kg/day, DW24): 81 µmol/L
CREATININE (RATE BLANKED) change from baseline: patients in range, n(%) [1]: 7(20.0%)
GFR change from baseline: patients in range, n(%) [1]: 13(37.1%)
UREA NITROGEN change from baseline: patients in range, n(%) [1]: 16(45.7%)
CREATININE (RATE BLANKED) change from baseline: patients in range, n(%) [2]: 12(37.5%)
GFR change from baseline: patients in range, n(%) [2]: 7(21.9%)
UREA NITROGEN change from baseline: patients in range, n(%) [2]: 10(31.3%)
CREATININE (RATE BLANKED) change from baseline: patients in range, n(%) [3]: 14(40.0%)
GFR change from baseline: patients in range, n(%) [3]: 8(22.9%)
UREA NITROGEN change from baseline: patients in range, n(%) [3]: 7(20.0%)
CREATININE (RATE BLANKED) change from baseline: patients in range, n(%) [4]: 7(21.9%)
GFR change from baseline: patients in range, n(%) [4]: 14(43.8%)
UREA NITROGEN change from baseline: patients in range, n(%) [4]: 15(46.9%)
CREATININE (RATE BLANKED) change from baseline: patients in range, n(%) [5]: 9(25.7%)
GFR change from baseline: patients in range, n(%) [5]: 9(25.7%)
UREA NITROGEN change from baseline: patients in range, n(%) [5]: 7(20.0%)
CREATININE (RATE BLANKED) change from baseline: patients in range, n(%) [6]: 13(40.6%)
GFR change from baseline: patients in range, n(%) [6]: 11(34.4%)
UREA NITROGEN change from baseline: patients in range, n(%) [6]: 7(21.9%)
CREATININE (RATE BLANKED) change from baseline: patients in range, n(%) [7]: 11(31.4%)
GFR change from baseline: patients in range, n(%) [7]: 9(25.7%)
UREA NITROGEN change from baseline: patients in range, n(%) [7]: 14(40.0%)
CREATININE (RATE BLANKED) change from baseline: patients in range, n(%) [8]: 8(25.0%)
GFR change from baseline: patients in range, n(%) [8]: 9(28.1%)
UREA NITROGEN change from baseline: patients in range, n(%) [8]: 9(28.1%)
CREATININE (RATE BLANKED) change from baseline: patients in range, n(%) [9]: 10(28.6%)
GFR change from baseline: patients in range, n(%) [9]: 12(34.3%)
UREA NITROGEN change from baseline: patients in range, n(%) [9]: 10(28.6%)
CREATININE (RATE BLANKED) change from baseline: patients in range, n(%) [10]: 13(40.6%)
GFR change from baseline: patients in range, n(%) [10]: 9(28.1%)
UREA NITROGEN change from baseline: patients in range, n(%) [10]: 15(46.9%)
CREATININE (RATE BLANKED) change from baseline: patients in range, n(%) [11]: 8(22.9%)
GFR change from baseline: patients in range, n(%) [11]: 7(20.0%)
UREA NITROGEN change from baseline: patients in range, n(%) [11]: 5(14.3%)
CREATININE (RATE BLANKED) change from baseline: patients in range, n(%) [12]: 10(31.3%)
GFR change from baseline: patients in range, n(%) [12]: 13(40.6%)
UREA NITROGEN change from baseline: patients in range, n(%) [12]: 7(21.9%)
CREATININE (RATE BLANKED) change from baseline: patients in range, n(%) [13]: 7(20.0%)
GFR change from baseline: patients in range, n(%) [13]: 15(42.9%)
UREA NITROGEN change from baseline: patients in range, n(%) [13]: 17(48.6%)
CREATININE (RATE BLANKED) change from baseline: patients in range, n(%) [14]: 9(28.1%)
GFR change from baseline: patients in range, n(%) [14]: 11(34.4%)
UREA NITROGEN change from baseline: patients in range, n(%) [14]: 13(40.6%)
CREATININE (RATE BLANKED) change from baseline: patients in range, n(%) [15]: 16(45.7%)
GFR change from baseline: patients in range, n(%) [15]: 6(17.1%)
UREA NITROGEN change from baseline: patients in range, n(%) [15]: 6(17.1%)

Source: patent US20130072430A1, “METHODS FOR TREATMENT OR PROPHYLAXIS OF KIDNEY OR LIVER DYSFUNCTION” (NPS PHARMACEUTICALS, INC., priority 2010, published 2013)
